Consider 17 compounds from US20120172385A1, “ORTHO SUBSTITUTED PYRIMIDINE COMPOUNDS AS JAK INHIBITORS” (priority 2009, published 2012).

pIC50: −log10 of the molar value.

For assay [1], the target named is T1, JAK2 (Homo sapiens, UniProt O60674).
T1 construct: endogenous in cells; host or cells: Molt4 (ATCC CRL-1582) and Ramos (ATCC CRL-1596) cell lysate, mixed 1:2
The experiment in a line: Kinobeads assay, JAK2 (dot blot detection). Type of assay: binding. Particulars: mixed Molt4/Ramos lysate. On the procedure: (§1) The compounds of the present invention as described in the previous examples were tested in a Kinobeads™ assay as described for ZAP-70 (WO-A 2007/137867). Briefly, test compounds (at various concentrations) and the affinity matrix with the immobilized aminopyrido-pyrimidine ligand 24 were added to cell lysate aliquots and allowed to bind to the proteins in the lysate sample. After the incubation time the beads with captured proteins were separated from the lysate. Bound proteins were then eluted and the presence of JAK2 and JAK3 was detected and quantified using specific antibodies in a dot blot procedure and the Odyssey infrared detection system. Dose response curves for individual kinases were generated and IC50 values calculated. Kinobeads™ assays for ZAP-70 (WO-A 2007/137867) and for kinase selectivity profiling (WO-A 2006/134056) have been previously described.
(§2) The affinity matrix was washed two times with 15 mL of 1×DP buffer containing 0.2% NP40 (IGEPAL® CA-630, Sigma, #I3021) and then resuspended in 1×DP buffer containing 0.2% NP40 (3% beads slurry).
(§3) 5×DP buffer: 250 mM Tris-HCl pH 7.4, 25% Glycerol, 7.5 mM MgCl2, 750 mM NaCl, 5 mM Na3VO4; filter the 5×DP buffer through a 0.22 μm filter and store in aliquots at −80° C. The 5×DP buffer is diluted with H2O to 1×DP buffer containing 1 mM DTT and 25 mM NaF.
(§4) Stock solutions of test compounds were prepared in DMSO. In a 96 well plate 30 μL solution of diluted test compounds at 5 mM in DMSO were prepared. Starting with this solution a 1:3 dilution series (9 steps) was prepared. For control experiments (no test compound) a buffer containing 2% DMSO was used.
(§5) Molt4 cells (ATCC catalogue number CRL-1582) and Ramos cells (ATCC catalogue number CRL-1596) were grown in 1 L Spinner flasks (Integra Biosciences, #182101) in suspension in RPMI 1640 medium (Invitrogen, #21875-034) supplemented with 10% Fetal Bovine Serum (Invitrogen) at a density between 0.15×10^6 and 1.2×10^6 cells/mL. Cells were harvested by centrifugation, washed once with 1×PBS buffer (Invitrogen, #14190-094) and cell pellets were frozen in liquid nitrogen and subsequently stored at −80° C. Cells were homogenized in a Potter S homogenizer in lysis buffer: 50 mM Tris-HCl, 0.8% NP40, 5% glycerol, 150 mM NaCl, 1.5 mM MgCl2, 25 mM NaF, 1 mM sodium vanadate, 1 mM DTT, pH 7.5. One complete EDTA-free tablet (protease inhibitor cocktail, Roche Diagnostics, 1873580) per 25 mL buffer was added. The material was dounced 10 times using a mechanized POTTER S, transferred to 50 mL falcon tubes, incubated for 30 minutes on ice and spun down for 10 minutes at 20,000 g at 4° C. (10,000 rpm in Sorvall SLA600, precooled). The supernatant was transferred to an ultracentrifuge (UZ)-polycarbonate tube (Beckmann, 355654) and spun for 1 hour at 100.000 g at 4° C. (33.500 rpm in Ti50.2, precooled). The supernatant was transferred again to a fresh 50 mL falcon tube, the protein concentration was determined by a Bradford assay (BioRad) and samples containing 50 mg of protein per aliquot were prepared. The samples were immediately used for experiments or frozen in liquid nitrogen and stored frozen at −80° C.
(§6) Cell lysate (approximately 50 mg protein per plate) was thawed in a water bath at room temperature and then stored on ice. To the thawed cell lysate 1×DP 0.8% NP40 buffer containing protease inhibitors (1 tablet for 25 mL buffer; EDTA-free protease inhibitor cocktail; Roche Diagnostics 1873580) was added in order to reach a final protein concentration of 10 mg/mL total protein. The diluted cell lysate was stored on ice. Mixed Molt4/Ramos lysate was prepared by combining one volume of Molt4 lysate and two volumes of Ramos lysate (ratio 1:2).
(§7) To a 96 well filter plate (Multiscreen HTS, BV Filter Plates, Millipore #MSBVN1250) were added per well: 100 μL affinity matrix (3% beads slurry), 3 μL of compound solution, and 50 μL of diluted lysate. […]

Assay [2] has as its target T2, JAK3 (Homo sapiens, UniProt P52333).
T2 construct: endogenous in cells; host or cells: Molt4 (ATCC CRL-1582) and Ramos (ATCC CRL-1596) cell lysate, mixed 1:2
T2 sequence (P52333 1-1124): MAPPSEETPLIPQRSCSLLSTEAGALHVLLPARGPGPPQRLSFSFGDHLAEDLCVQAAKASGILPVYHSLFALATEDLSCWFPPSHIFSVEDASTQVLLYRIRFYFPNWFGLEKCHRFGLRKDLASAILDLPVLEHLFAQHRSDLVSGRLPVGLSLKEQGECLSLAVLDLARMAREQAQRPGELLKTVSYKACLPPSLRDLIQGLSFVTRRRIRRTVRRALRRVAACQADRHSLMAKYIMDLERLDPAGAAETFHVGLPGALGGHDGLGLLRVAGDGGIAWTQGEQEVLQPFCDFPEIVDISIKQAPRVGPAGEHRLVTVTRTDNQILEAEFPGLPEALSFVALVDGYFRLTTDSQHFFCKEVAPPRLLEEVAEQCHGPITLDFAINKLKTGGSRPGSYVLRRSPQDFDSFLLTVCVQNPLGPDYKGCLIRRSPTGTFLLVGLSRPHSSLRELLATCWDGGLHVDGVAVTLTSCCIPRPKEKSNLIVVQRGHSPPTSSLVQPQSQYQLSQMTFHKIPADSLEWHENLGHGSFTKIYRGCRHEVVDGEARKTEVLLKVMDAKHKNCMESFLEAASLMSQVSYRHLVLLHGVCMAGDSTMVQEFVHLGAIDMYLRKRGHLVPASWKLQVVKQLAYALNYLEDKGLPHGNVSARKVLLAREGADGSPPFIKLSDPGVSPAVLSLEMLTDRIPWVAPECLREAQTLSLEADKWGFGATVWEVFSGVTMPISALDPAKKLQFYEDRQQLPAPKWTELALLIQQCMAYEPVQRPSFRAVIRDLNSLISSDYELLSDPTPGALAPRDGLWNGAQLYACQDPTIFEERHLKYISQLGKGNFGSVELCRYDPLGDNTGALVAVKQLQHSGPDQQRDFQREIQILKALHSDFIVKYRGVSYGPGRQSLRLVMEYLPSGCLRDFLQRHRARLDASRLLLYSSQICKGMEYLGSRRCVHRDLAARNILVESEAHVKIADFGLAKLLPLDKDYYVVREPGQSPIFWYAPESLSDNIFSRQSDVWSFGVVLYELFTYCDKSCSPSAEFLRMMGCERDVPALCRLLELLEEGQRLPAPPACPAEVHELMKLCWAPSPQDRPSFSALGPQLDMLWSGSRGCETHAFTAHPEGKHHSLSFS
The experiment in a line: Kinobeads assay, JAK3 (dot blot detection). Type of assay: binding. Particulars: mixed Molt4/Ramos lysate. The procedure: as §1, §2, §3, §4, §5, §6, §7

Assay [3] relates to organ transplantation. Particulars: Changelian et al., 2003; cited from earlier work.
For assay [4], the system named is spontaneous autoimmune diabetes. Particulars: NOD mouse model of type I diabetes; cited from earlier work.
Assay [5] relates to GVHD. Particulars: reviewed in Cetkovic-Cvrlje and Ucken, 2004; cited from earlier work.

T1 sequence (O60674 whole entry): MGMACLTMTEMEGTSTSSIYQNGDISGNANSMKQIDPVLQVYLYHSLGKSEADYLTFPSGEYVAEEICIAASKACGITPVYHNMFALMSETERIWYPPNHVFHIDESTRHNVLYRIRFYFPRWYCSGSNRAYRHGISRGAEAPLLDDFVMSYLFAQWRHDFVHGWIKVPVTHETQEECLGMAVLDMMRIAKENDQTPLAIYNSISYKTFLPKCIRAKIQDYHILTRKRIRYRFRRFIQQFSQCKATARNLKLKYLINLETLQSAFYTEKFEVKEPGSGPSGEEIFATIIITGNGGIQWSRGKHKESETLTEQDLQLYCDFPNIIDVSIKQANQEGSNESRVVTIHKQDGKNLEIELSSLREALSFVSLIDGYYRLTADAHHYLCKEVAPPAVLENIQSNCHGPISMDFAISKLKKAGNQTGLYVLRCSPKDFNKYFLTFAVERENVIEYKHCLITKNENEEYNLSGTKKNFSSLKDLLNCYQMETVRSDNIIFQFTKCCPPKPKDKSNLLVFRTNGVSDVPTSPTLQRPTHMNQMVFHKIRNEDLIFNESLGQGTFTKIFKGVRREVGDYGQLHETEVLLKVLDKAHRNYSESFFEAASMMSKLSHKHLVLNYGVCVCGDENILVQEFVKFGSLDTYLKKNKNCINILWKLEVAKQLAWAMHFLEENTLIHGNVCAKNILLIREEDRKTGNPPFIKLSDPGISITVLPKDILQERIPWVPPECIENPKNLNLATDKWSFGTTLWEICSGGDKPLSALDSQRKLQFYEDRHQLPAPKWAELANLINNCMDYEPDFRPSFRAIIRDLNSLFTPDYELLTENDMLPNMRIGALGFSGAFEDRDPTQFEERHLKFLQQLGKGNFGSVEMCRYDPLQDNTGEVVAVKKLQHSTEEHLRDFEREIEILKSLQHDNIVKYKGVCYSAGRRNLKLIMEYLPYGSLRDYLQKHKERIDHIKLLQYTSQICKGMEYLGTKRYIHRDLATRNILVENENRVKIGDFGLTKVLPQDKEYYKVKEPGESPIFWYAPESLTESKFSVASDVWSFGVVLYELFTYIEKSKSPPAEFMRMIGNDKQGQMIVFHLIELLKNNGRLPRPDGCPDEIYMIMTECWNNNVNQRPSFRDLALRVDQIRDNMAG

For orientation: pIC50 means the negative decadic logarithm of the IC50, by convention in mol/L. Low values mean a large IC50, high ones a small IC50. Turning to `Cc1ccc(C#N)cc1Nc1ncc(Cl)c(Nc2ccccc2NS(C)(=O)=O)n1` [Example 14, N-(2-(5-chloro-2-(5-cyano-2-methylphenylamino)pyrimidin-4-ylamino)phenyl)methanesulfonamide], the results for the pIC50 in assay [1] and in assay [2] were 5.00 to 6.00 and 6.00 to 7.00, respectively.
Regarding `CNC(=O)c1ccc(Cl)c(Nc2ncc(Cl)c(Nc3ccccc3NS(C)(=O)=O)n2)c1` [Example 16, 4-Chloro-3-(5-chloro-4-(2-(methylsulfonamido)phenylamino)pyrimidin-2-ylamino)-N-methylbenzamide], the figures for the pIC50 in assay [1] and in assay [2] were no more than 5.00 and 6.00 to 7.00, respectively.
Turning to `CNC(=O)c1ccc(OC)c(Nc2ncc(Cl)c(Nc3ccccc3NS(C)(=O)=O)n2)c1` [Example 17, 3-(5-chloro-4-(2-(methylsulfonamido)phenylamino)pyrimidin-2-ylamino)-4-methoxy-N-methylbenzamide], the pIC50 was no more than 5.00 in assay [1] and greater than 7.00 in assay [2].
On the same counts, the results for `COc1ccc(Nc2nc(Nc3cc(-n4cnnn4)ccc3C)ncc2Cl)c(NS(C)(=O)=O)c1` [Example 12, N-(2-(5-chloro-2-(2-methyl-5-(1H-tetrazol-1-yl)phenylamino)pyrimidin-4-ylamino)-5-methoxyphenyl)methanesulfonamide] are 5.00 to 6.00 and greater than 7.00.
Turning to `CCNC(=O)c1ccc(OC)c(Nc2ncc(Cl)c(Nc3ccccc3NS(=O)(=O)CC)n2)c1` [Example 26, 3-(5-chloro-4-(2-(ethylsulfonamido)phenylamino)pyrimidin-2-ylamino)-N-ethyl-4-methoxybenzamide], the pIC50 is no more than 5.00 in assay [1] and 6.00 to 7.00 in assay [2].
As for `C[C@@H]1CCN(C(=O)CC#N)C[C@@H]1N(C)c1ncnc2[nH]ccc12` [CP-690,550], in assay [3], the “efficacy in an animal model of organ transplantation” value is listed as “show efficacy”.
On to `COc1ccc(Nc2nc(Nc3cc(-n4cnnc4)ccc3C)ncc2Cl)c(NS(C)(=O)=O)c1` [Example 13, N-(2-(5-chloro-2-(2-methyl-5-(4H-1,2,4-triazol-4-yl)phenylamino)pyrimidin-4-ylamino)-5-methoxyphenyl)methanesulfonamide], for which the negative logarithm of the IC50 (pIC50) was 6.00 to 7.00 in assay [1] and greater than 7.00 in assay [2].
Consider `COc1ccc(Nc2nc(Nc3cc(-n4cnnc4)ccc3OC)ncc2Cl)c(NS(C)(=O)=O)c1` [Example 11, N-(2-(5-chloro-2-(2-methoxy-5-(4H-1,2,4-triazol-4-yl)phenylamino)pyrimidin-4-ylamino)-5-methoxyphenyl)methanesulfonamide], for which the results for the pIC50 in assay [1] and in assay [2] were 5.00 to 6.00 and greater than 7.00, respectively.
On to `CCNC(=O)c1ccc(OC)c(Nc2ncc(Cl)c(Nc3ccccc3NS(C)(=O)=O)n2)c1` [Example 21], for which, in assay [2], the negative logarithm of the IC50 (pIC50) is greater than 7.00.
Take `Cc1ccc(C(=O)N(C)C)cc1Nc1ncc(Cl)c(Nc2ccccc2NS(C)(=O)=O)n1` [Example 24, 3-(5-chloro-4-(2-(methylsulfonamido)phenylamino)pyrimidin-2-ylamino)-N,N,4-trimethylbenzamide]: the values for the negative-log IC50 (pIC50) in assay [1] and in assay [2] were no more than 5.00 and 6.00 to 7.00, respectively.
For the compound `CCS(=O)(=O)Nc1ccccc1Nc1nc(Nc2cc(C#N)ccc2OC)ncc1Cl` [Example 25, N-(2-(5-chloro-2-(5-cyano-2-methoxyphenylamino)pyrimidin-4-ylamino)phenyl)ethanesulfonamide], the values for the pIC50 in assay [1] and in assay [2] were no more than 5.00 and 6.00 to 7.00, respectively.
For the compound `COc1ccc(C(=O)NC2CC2)cc1Nc1ncc(Cl)c(Nc2ccccc2NS(C)(=O)=O)n1` [Example 20], the pIC50 in assay [2] was greater than 7.00.
Take `CCS(=O)(=O)Nc1ccccc1Nc1nc(Nc2cc(C(=O)NC)ccc2OC)ncc1Cl` [Example 27, 3-(5-chloro-4-(2-(ethylsulfonamido)phenylamino)pyrimidin-2-ylamino)-4-methoxy-N-methylbenzamide]: the pIC50 was no more than 5.00 in assay [1] and 6.00 to 7.00 in assay [2].
`COc1ccc(C(=O)NC(C)C)cc1Nc1ncc(Cl)c(Nc2ccccc2NS(C)(=O)=O)n1` [Example 18] gave a pIC50 in assay [2] greater than 7.00.
In the case of `Cc1ccc(C#N)cc1Nc1ncc(Cl)c(Nc2cccc(F)c2NS(C)(=O)=O)n1` [Example 23, N-(2-(5-chloro-2-(5-cyano-2-methylphenylamino)pyrimidin-4-ylamino)-6-fluorophenyl)methanesulfonamide], the negative logarithm of the IC50 (pIC50) is no more than 5.00 in assay [1] and 5.00 to 6.00 in assay [2].
Consider `COc1cc2ncnc(Nc3ccc(O)cc3)c2cc1OC` [JANEX-1], for which the “prevention of spontaneous autoimmune diabetes development” value in assay [4] was “prevent spontaneous autoimmune diabetes development”. The “severity of GVHD” value in assay [5] is “attenuate the severity of GVHD”.
For `COc1ccc(C(=O)N2CCCCC2)cc1Nc1ncc(Cl)c(Nc2ccccc2NS(C)(=O)=O)n1` [Example 19, N-(2-(5-chloro-2-(2-methoxy-5-(piperidine-1-carbonyl)phenylamino)pyrimidin-4-ylamino)phenyl)methanesulfonamide], the pIC50 in assay [1] was no more than 5.00; in assay [2], 6.00 to 7.00.
